Test results published in patent US10670605B2, “Cysteine reactive probes and uses thereof” (The Scripps Research Institute, priority 2015, dated 2020).

Assays:
[1] = biological target: T1, O114933_C98 (Homo sapiens, UniProt O14933); experiment: Competitive isoTOP-ABPP, cell lysates; format: binding
[2] = biological target: T2, cysteines in MDA-MB-231 and Ramos cells (Homo sapiens, UniProt Q01433); experiment: Competitive isoTOP-ABPP in situ (fragment-treated cells); format: cell-based
T2 sequence (Q01433 1-825): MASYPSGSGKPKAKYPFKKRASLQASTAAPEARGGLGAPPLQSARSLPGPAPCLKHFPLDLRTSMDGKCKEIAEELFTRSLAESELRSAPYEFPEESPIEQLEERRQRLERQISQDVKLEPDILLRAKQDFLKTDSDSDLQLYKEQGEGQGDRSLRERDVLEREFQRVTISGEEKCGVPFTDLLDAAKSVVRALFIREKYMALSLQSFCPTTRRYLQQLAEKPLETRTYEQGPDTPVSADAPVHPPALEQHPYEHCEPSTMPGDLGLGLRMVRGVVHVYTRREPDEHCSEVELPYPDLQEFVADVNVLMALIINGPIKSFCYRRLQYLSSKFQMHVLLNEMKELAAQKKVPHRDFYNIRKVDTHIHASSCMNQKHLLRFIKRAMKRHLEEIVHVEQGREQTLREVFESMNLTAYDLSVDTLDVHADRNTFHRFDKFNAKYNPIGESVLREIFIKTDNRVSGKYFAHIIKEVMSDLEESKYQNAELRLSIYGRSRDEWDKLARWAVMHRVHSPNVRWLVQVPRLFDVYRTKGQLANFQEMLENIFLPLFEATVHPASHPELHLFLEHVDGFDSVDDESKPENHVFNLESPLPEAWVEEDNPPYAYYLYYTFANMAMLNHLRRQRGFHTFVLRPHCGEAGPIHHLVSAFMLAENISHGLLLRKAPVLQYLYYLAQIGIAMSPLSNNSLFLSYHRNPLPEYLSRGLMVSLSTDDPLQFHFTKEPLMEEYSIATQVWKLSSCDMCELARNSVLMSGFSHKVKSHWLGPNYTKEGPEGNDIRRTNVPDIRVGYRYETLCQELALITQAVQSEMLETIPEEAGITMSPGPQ

[3] = biological target: O00541_C272 (Homo sapiens, UniProt O00541); experiment: Competitive isoTOP-ABPP, cell lysates; format: binding
Chain of O00541_C272 (O00541 whole entry, looked up, the tested form may be a part): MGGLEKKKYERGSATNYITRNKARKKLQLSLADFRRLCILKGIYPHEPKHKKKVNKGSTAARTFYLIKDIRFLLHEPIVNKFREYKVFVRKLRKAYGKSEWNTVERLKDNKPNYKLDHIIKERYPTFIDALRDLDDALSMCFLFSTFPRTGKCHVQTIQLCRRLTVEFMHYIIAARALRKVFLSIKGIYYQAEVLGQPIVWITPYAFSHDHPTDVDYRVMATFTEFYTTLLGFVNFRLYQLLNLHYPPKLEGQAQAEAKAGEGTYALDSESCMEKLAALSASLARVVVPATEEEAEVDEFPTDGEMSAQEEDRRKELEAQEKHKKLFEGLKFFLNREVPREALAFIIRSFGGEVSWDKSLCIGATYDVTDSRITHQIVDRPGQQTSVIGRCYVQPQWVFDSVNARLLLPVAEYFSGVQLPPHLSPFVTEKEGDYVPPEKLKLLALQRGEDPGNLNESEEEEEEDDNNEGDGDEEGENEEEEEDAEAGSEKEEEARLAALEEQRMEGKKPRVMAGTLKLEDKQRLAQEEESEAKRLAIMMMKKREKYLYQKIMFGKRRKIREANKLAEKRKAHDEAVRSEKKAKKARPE

[4] = biological target: T3, cysteines in MDA-MB-231 and Ramos cells (Homo sapiens, UniProt Q86X76); experiment: Competitive isoTOP-ABPP in situ (fragment-treated cells); format: cell-based
T3 sequence (Q86X76 14-327): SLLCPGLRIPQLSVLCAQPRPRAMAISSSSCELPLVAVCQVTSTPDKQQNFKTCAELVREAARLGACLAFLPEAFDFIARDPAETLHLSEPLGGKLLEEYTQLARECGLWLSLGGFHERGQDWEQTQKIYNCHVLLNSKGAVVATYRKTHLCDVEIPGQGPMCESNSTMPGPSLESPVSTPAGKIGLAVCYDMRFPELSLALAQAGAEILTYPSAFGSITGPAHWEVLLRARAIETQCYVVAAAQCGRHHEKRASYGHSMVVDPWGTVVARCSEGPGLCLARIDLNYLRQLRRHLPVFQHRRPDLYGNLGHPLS

[5] = biological target: T4, cysteines in MDA-MB-231 and Ramos cells (Homo sapiens, UniProt O43175); experiment: as above; format: cell-based; details: 200 μM, insitu
T4 sequence (O43175 1-533): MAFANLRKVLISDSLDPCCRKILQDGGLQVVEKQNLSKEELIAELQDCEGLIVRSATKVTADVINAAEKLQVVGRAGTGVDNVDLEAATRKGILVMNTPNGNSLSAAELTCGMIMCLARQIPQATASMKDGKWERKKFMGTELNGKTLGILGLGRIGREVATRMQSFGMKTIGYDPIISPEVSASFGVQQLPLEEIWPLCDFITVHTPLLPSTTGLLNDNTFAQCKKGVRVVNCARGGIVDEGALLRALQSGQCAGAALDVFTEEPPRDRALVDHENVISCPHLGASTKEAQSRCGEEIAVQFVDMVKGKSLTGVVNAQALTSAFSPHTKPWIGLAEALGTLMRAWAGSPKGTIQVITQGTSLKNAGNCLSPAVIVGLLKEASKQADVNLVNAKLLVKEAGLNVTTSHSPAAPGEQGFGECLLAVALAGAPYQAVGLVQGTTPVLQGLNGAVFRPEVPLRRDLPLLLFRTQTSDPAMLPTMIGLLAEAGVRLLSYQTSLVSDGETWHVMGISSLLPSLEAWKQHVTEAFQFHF

[6] = biological target: T1, O114933_C98; experiment: Competitive isoTOP-ABPP, cell lysates; format: binding; details: 500 μm

T1 sequence (O14933 whole entry, the tested form may be a part): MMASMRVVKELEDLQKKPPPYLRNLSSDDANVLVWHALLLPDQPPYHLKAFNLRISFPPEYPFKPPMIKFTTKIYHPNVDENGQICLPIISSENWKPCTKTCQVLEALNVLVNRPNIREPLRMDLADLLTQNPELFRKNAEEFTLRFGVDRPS

## C=CC(=O)N(Cc1cccnc1)c1ccc(Oc2ccccc2)c(C(F)(F)F)c1 [compound 15]
[1]; 500 μm in-vitro ramos
  isoTOP-ABPP ratio (reactivity profile), O114933_C98: 1.3

## CC(C)CCOCCNC(=O)CCl [compound 27]
[2]; 200 μM, insitu, 231
  isoTOP-ABPP ratio Q01433_C107: 0.4
[1]; 500 μm in-vitro ramos
  isoTOP-ABPP ratio (reactivity profile), O114933_C98: 1.0
[1]; 500 μm in-vitro ramos_231
  isoTOP-ABPP ratio (reactivity profile), O114933_C98: 1.2
[3]; 500 μm in-vitro ramos_231
  isoTOP-ABPP ratio (reactivity profile), O00541_C272: 1.1

## COc1cc2c(cc1OC)CN(C(=O)CCl)CC2 [compound 8]
[2]; 200 μM, insitu, 231
  isoTOP-ABPP reactivity Q01433_C107 AMPD2: 6.2

## COc1ccc(C2CC(c3cccs3)=NN2C(=O)CCl)cc1 (stereo not shown) [compound 4]
[2]; 100 μM in situ 231
  isoTOP-ABPP reactivity Q01433_C107 AMPD2: 2.3
[4]; 100 μM in situ 231
  isoTOP-ABPP reactivity Q86X76_C203 NIT1: 0.7

## O=C(/C=C/c1ccccc1)Nc1cc(C(F)(F)F)cc(C(F)(F)F)c1 [compound 26]
[1]; 500 μm in-vitro ramos
  isoTOP-ABPP ratio (reactivity profile), O114933_C98: 1.0

## COc1ccccc1OCCNC(=O)CCl [compound 28]
[1]; 500 μm in-vitro ramos
  isoTOP-ABPP ratio (reactivity profile), O114933_C98: 1.2

## O=C(CCl)N1CCN(S(=O)(=O)c2ccccc2F)CC1 [compound 10]
[5]; ramos
  isoTOP-ABPP ratio, cysteine O43175_C369: 2.4

## CC1CCc2ccccc2N1C(=O)CCl (stereo not shown) [compound 45]
[4]; 200 μM, insitu, 231
  isoTOP-ABPP ratio Q86X76_C203: 20.0

## Cc1ccc(C=C(C#N)C(=O)NCCN2CCOCC2)cc1 [compound 41]
[2]; 200 μM, insitu, 231
  isoTOP-ABPP ratio Q01433_C107: 0.5
[4]; 200 μM, insitu, 231
  isoTOP-ABPP ratio Q86X76_C203: 1.3
[6]; in-vitro_ramos
  isoTOP-ABPP reactivity ratio, O114933_C98: 1.1
[6]; in-vitro_ramos_231
  isoTOP-ABPP reactivity ratio, O114933_C98: 1.2

## O=C(CCl)N(Cc1ccc(F)cc1)C12CC3CC(CC(C3)C1)C2 [compound 34]
[6]; in-vitro_ramos_231
  isoTOP-ABPP reactivity ratio, O114933_C98: 0.8

## CC(C)(C)c1cc(NC(=O)CCl)on1 [compound 32]
[6]; in-vitro_ramos
  isoTOP-ABPP reactivity ratio, O114933_C98: 4.6
[6]; in-vitro_ramos_231
  isoTOP-ABPP reactivity ratio, O114933_C98: 13.8

## COc1ccc2c(c1)CCCN2C(=O)CCl [compound 2]
[5]; 231
  isoTOP-ABPP reactivity O43175_C369 PHGDH: 20.0
[2]; 200 μM, insitu, 231
  isoTOP-ABPP reactivity Q01433_C107 AMPD2: 4.4

## N#C/C(=C\c1cc(C(F)(F)F)cc(C(F)(F)F)c1)C(N)=O [compound 23]
[1]; 500 μm in-vitro ramos
  isoTOP-ABPP ratio (reactivity profile), O114933_C98: 1.2
[1]; 500 μm in-vitro ramos_231
  isoTOP-ABPP ratio (reactivity profile), O114933_C98: 0.7
[3]; 500 μm in-vitro ramos
  isoTOP-ABPP ratio (reactivity profile), O00541_C272: 2.0

## C=CC(=O)Nc1cc(F)c(N2CCN(C(=O)OC(C)(C)C)CC2)c(F)c1 [compound 38]
[6]; in-vitro_ramos
  isoTOP-ABPP reactivity ratio, O114933_C98: 1.7
[6]; in-vitro_ramos_231
  isoTOP-ABPP reactivity ratio, O114933_C98: 1.6

## C=CC(=O)Nc1cc(C)c(Br)cc1C [compound 40]
[6]; in-vitro_ramos
  isoTOP-ABPP reactivity ratio, O114933_C98: 1.3

## O=C(CCl)NC(=O)NC12CC3CC(CC(C3)C1)C2 [compound 12]
[4]; 200 μM, insitu, 231
  isoTOP-ABPP ratio, cysteine Q86X76_C203: 3.9

## C=CC(=O)N(Cc1cccnc1)c1cc(C(F)(F)F)cc(C(F)(F)F)c1 [compound 31]
[5]; 231
  isoTOP-ABPP ratio O43175_C369: 20.0
[5]; ramos
  isoTOP-ABPP ratio O43175_C369: 20.0
[2]; 200 μM, insitu, 231
  isoTOP-ABPP ratio Q01433_C107: 0.7

## Cn1cc(S(=O)(=O)N2CCOCC2)cc1C(=O)NC(=O)CCl [compound 11]
[2]; 100 μM in situ 231
  isoTOP-ABPP ratio, cysteine Q01433_C107: 0.6
[4]; 100 μM in situ 231
  isoTOP-ABPP ratio, cysteine Q86X76_C203: 0.8

## O=C(CCl)NCCc1c[nH]c2ccccc12 [compound 13]
[5]; ramos
  isoTOP-ABPP ratio, cysteine O43175_C369: 2.0

## O=C(CCl)N1CCN(CC(=O)N2CCOCC2)CC1 [compound 29]
[5]; ramos
  isoTOP-ABPP ratio O43175_C369: 1.1
[3]; 500 μm in-vitro ramos_231
  isoTOP-ABPP ratio (reactivity profile), O00541_C272: 0.9

## O=C(CCl)N1CCOCC1 [compound 22]
[1]; 500 μm in-vitro ramos
  isoTOP-ABPP ratio (reactivity profile), O114933_C98: 2.0
[3]; 500 μm in-vitro ramos_231
  isoTOP-ABPP ratio (reactivity profile), O00541_C272: 1.6

## CC(Br)C(=O)Nc1cc(C(F)(F)F)cc(C(F)(F)F)c1 (stereo not shown) [compound 24]
[3]; 500 μm in-vitro ramos
  isoTOP-ABPP ratio (reactivity profile), O00541_C272: 2.6

## O=C(CCl)NC12CC3CC(CC(C3)C1)C2 [compound 21]
[5]; 231
  isoTOP-ABPP ratio, cysteine O43175_C369: 1.0
[4]; 200 μM, insitu, 231
  isoTOP-ABPP ratio, cysteine Q86X76_C203: 0.8
[3]; 500 μm in-vitro ramos
  isoTOP-ABPP ratio (reactivity profile), O00541_C272: 5.5

## O=C(CCl)N1CCC(Cc2ccccc2)CC1 [compound 9]
[2]; 200 μM, insitu, 231
  isoTOP-ABPP reactivity Q01433_C107 AMPD2: 3.1

## O=C(CCl)N1CCC(C(O)(c2ccccc2)c2ccccc2)CC1 [compound 20]
[1]; 500 μm in-vitro ramos
  isoTOP-ABPP ratio (reactivity profile), O114933_C98: 3.9

## CCN(CC)c1ccc(S(N)(=O)=O)cc1NC(=O)CCl [compound 30]
[1]; 500 μm in-vitro ramos
  isoTOP-ABPP ratio (reactivity profile), O114933_C98: 1.3
[6]; in-vitro_ramos
  isoTOP-ABPP reactivity ratio, O114933_C98: 2.1
